Data: PubChem BioAssay (NCI)
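Dose response: 5 concentrations. Exposure: 48 h. Format: 96-well plates. Endpoint: linear interpolation; highest concentration if not reached. GI50 marks 50% less growth. TGI marks complete inhibition of growth.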

Assays:
Test in all cases: NCI tumour cell line growth inhibition, 48 h
MDA-MB-435 = system: MDA-MB-435
HT29 colon = system: HT29 colon
HCT-116 colon = system: HCT-116 colon
BT-549 breast = system: BT-549 breast
SK-MEL-2 melanoma = system: SK-MEL-2 melanoma
SK-MEL-28 melanoma = system: SK-MEL-28 melanoma
COLO 205 colon = system: COLO 205 colon
UO-31 renal = system: UO-31 renal
SF-295 CNS = system: SF-295 CNS
NCI-H226 lung = system: NCI-H226 lung

Structure (SMILES)	GI50 (MDA-MB-435)	TGI (MDA-MB-435)	GI50 (HT29 colon)	TGI (HT29 colon)	GI50 (HCT-116 colon)	TGI (HCT-116 colon)	GI50 (BT-549 breast)	TGI (BT-549 breast)	GI50 (SK-MEL-2 melanoma)	TGI (SK-MEL-2 melanoma)	GI50 (SK-MEL-28 melanoma)	TGI (SK-MEL-28 melanoma)	GI50 (COLO 205 colon)	TGI (COLO 205 colon)	GI50 (UO-31 renal)	TGI (UO-31 renal)	GI50 (SF-295 CNS)	TGI (SF-295 CNS)	GI50 (NCI-H226 lung)	TGI (NCI-H226 lung)
CC(=O)CCc1ccc(OC2OC(COC(=O)c3cc(O)c(O)c(O)c3)C(O)C(O)C2OC(=O)/C=C/c2ccccc2)cc1 (stereo not given)	16.8 µM	37.1 µM	29.6 µM	82.2 µM	15.1 µM	29.9 µM	35.6 µM	64.6 µM	20.2 µM	43 µM	19.4 µM	39.9 µM	28.1 µM	89.4 µM	30.2 µM	> 100 µM	24.5 µM	52.2 µM	16.9 µM	37 µM
O=C1c2cccnc2C(=O)C2C3C=CC(C3)C12 (stereo not given)		5.7 µM		60.9 µM		14 µM		24 µM		16.9 µM		39.3 µM		26.5 µM		28.1 µM		26.6 µM		32 µM
COc1cc2cc(C(=O)CCC(=O)O)sc2cc1OC	> 100 µM	> 100 µM	54.6 µM	> 100 µM	> 100 µM	> 100 µM	> 100 µM	> 100 µM	> 100 µM	> 100 µM	> 100 µM	> 100 µM	> 100 µM	> 100 µM	> 100 µM	> 100 µM	> 100 µM	> 100 µM	47.4 µM	> 100 µM
Cn1ccnc1C(=O)/C=C/c1ccc(C(=O)Nc2ccc(S(F)(F)(F)(F)F)cc2)cc1	3.04 µM	> 14.3 µM	1.88 µM	> 14.3 µM	0.854 µM	> 14.3 µM	2.62 µM	> 14.3 µM	> 14.3 µM	> 14.3 µM	> 14.3 µM	> 14.3 µM	2 µM	12.3 µM	2.22 µM	> 14.3 µM	1.62 µM	> 14.3 µM	6.57 µM	> 14.3 µM
CCCCOc1ccc(NC(=O)n2nc(N)c3ccccc32)cc1	22.8 µM	> 65.1 µM	9.98 µM	26 µM	19.3 µM	55.7 µM	17.6 µM	37 µM	27.8 µM	76 µM	28.3 µM	> 90.5 µM	18 µM	41 µM	13.4 µM	> 100 µM	23.5 µM	79.3 µM	21 µM	> 85.2 µM
CCOC(=O)/C(=N\OC)C(O)C(F)(F)F (stereo not given)		> 100 µM		> 100 µM		> 100 µM		> 100 µM		> 100 µM		> 100 µM		> 100 µM		> 100 µM		> 100 µM		> 100 µM
CC(=O)N1N=C(c2ccc(Nc3nc(Nc4ccc(Cl)cc4)nc(Nc4ccc(Cl)cc4)n3)cc2)CC1c1ccc([N+](=O)[O-])cc1 (stereo not given)	4.59 µM	36 µM	4.74 µM	> 95 µM	3.24 µM	34.8 µM	10.6 µM	88.9 µM	5.38 µM	> 45.6 µM	8.79 µM	74.4 µM	1.82 µM	6.64 µM	4.29 µM	> 100 µM	1.87 µM	13.6 µM	12.9 µM	> 82.7 µM
CCOc1ccc(-c2cnnn2-c2nonc2-n2cccc2)cc1	0.0345 µM	0.168 µM	0.22 µM	4.54 µM	0.226 µM	1.46 µM	0.363 µM		0.308 µM	> 100 µM	0.402 µM	> 100 µM	0.247 µM	0.808 µM	0.376 µM	> 88.8 µM	0.295 µM	> 91.2 µM	1.52 µM	> 100 µM
CC(C)(O)C#Cc1ccc(/C=C/C(=O)c2ccccc2)s1	12.6 µM	26.4 µM	13.5 µM	29.9 µM	4.08 µM	15.4 µM	16.2 µM	30.8 µM	17.6 µM	33.9 µM	16 µM	30.2 µM	16.9 µM	32.7 µM	14.5 µM	27.6 µM	17.7 µM	35.5 µM	18.8 µM	42.3 µM
CC(=O)Nc1ccc(/C=C/C(=O)c2ccccc2)cc1	17.4 µM	50.5 µM	8.29 µM	24.9 µM	3.98 µM	15.5 µM	20.1 µM	41.2 µM	19.7 µM	35.5 µM	20.5 µM	44.2 µM	14.8 µM	28 µM	5.3 µM	21.2 µM	14.4 µM	31.7 µM	27.9 µM	> 100 µM
Cn1cc(C2=C(c3cccc(N)c3)C(=O)NC2=O)c2ccccc21	18.7 µM	> 25 µM	13.1 µM	> 25 µM	7.94 µM	> 25 µM	> 19.3 µM	> 25 µM	14.3 µM	> 25 µM	> 25 µM	> 25 µM	10.8 µM	> 25 µM	14.1 µM	> 25 µM	3.93 µM	> 25 µM	10 µM	> 25 µM
CCCCCc1nc2c(c3c1CCCC3)CCCC2	14.4 µM	38.7 µM	1.85 µM	14.8 µM	3.01 µM	15.2 µM	10.7 µM	24.4 µM	12.7 µM	27.4 µM	14.8 µM	36.2 µM	10.2 µM	22.1 µM	2.19 µM	13.9 µM	4.58 µM	20.9 µM	9.57 µM	25.6 µM
c1ccc2c(c1)sc1c3cnccc3ccc21		> 100 µM		> 100 µM		> 100 µM		> 100 µM		> 100 µM		> 100 µM		> 100 µM		> 100 µM		> 100 µM		> 100 µM
COc1cc(-c2nc3sccn3c2-c2ccnc(NCCNS(=O)(=O)c3ccc(Cl)cc3)n2)ccc1F	3.63 µM	58.1 µM	4.28 µM	> 100 µM	3.56 µM	> 100 µM	2.61 µM	> 100 µM	3.46 µM	35.3 µM	4.37 µM	> 100 µM	3.48 µM	> 100 µM	2.72 µM	> 100 µM	4.07 µM	> 100 µM	2.37 µM	10.5 µM
COc1cc(-n2cc(-c3ccc(F)cc3)nc2SCc2ccccc2)cc(OC)c1OC	> 100 µM	> 100 µM	13.4 µM	> 100 µM	18.8 µM	> 100 µM	> 100 µM	> 100 µM	> 100 µM	> 100 µM	> 100 µM	> 100 µM	> 100 µM	> 100 µM	9.66 µM	> 100 µM	> 100 µM	> 100 µM	> 100 µM	> 100 µM
Cc1ccc2c(c1)c1nc3cc(C)c(C)cc3nc1n2CCN(C)C	1.98 µM	4.42 µM	1.23 µM	6.54 µM	0.63 µM	10.1 µM	2.46 µM	9.05 µM	2.15 µM	4.87 µM	2.55 µM	5.46 µM	1.24 µM	4.6 µM	1.07 µM	3.48 µM	2.37 µM	6.62 µM	1.86 µM	4.69 µM
COc1cc(C(=O)N2N=C(c3ccc(S(C)(=O)=O)cc3)CC2c2ccco2)cc(OC)c1OC (stereo not given)	1.27 µM	7.27 µM	3.17 µM	> 100 µM	3.77 µM	> 100 µM	5.2 µM	> 71.7 µM	8.68 µM	> 100 µM	22.2 µM	> 100 µM	2.27 µM	10.1 µM	7.23 µM	> 100 µM	3.04 µM	> 100 µM	> 57.3 µM	> 100 µM
CC1=C(/C=C/C(=O)O)C(C)(C)CCC1		> 100 µM		> 100 µM		> 100 µM		> 100 µM		> 100 µM		> 100 µM		> 100 µM		> 100 µM		> 100 µM		> 100 µM
COc1ccc2c(c1)=C(C=C1C=CN(O)C=C1)C(=O)N=2	35 µM	> 89.6 µM	17.1 µM	> 66.8 µM	28.9 µM	> 100 µM	22.6 µM	88.1 µM	26.7 µM	73.7 µM	27 µM	> 100 µM	3.84 µM	32.8 µM	19.8 µM	> 92.6 µM	34.3 µM	> 93.8 µM	25.7 µM	97.5 µM
O=C1C2C(C(=O)[N]1[Hg][c]1cccs1)C1(Cl)C(Cl)=C(Cl)C2(Cl)C1(Cl)Cl (stereo not given)	1.47 µM	3.05 µM	0.649 µM	3.57 µM	1.25 µM	2.54 µM	0.984 µM	2.24 µM	1.56 µM	3.23 µM	1.24 µM	2.7 µM	1.22 µM	2.65 µM	1.74 µM	3.21 µM	3.11 µM	8.53 µM	6.88 µM	37.8 µM
CN(Cc1ccc(Cl)cc1)c1ccc(CO)c(Cl)c1	13.5 µM	27.9 µM	6.7 µM	22.6 µM	0.445 µM	8.75 µM	5.31 µM	19.9 µM	4.06 µM	16.3 µM	12.3 µM	25.1 µM	5.95 µM	18.1 µM	3.23 µM	14.5 µM	2.48 µM	16 µM	0.115 µM	0.285 µM
CCC[CH2][Sn]([CH2]CCC)([O]C(=O)c1cc(F)ccc1F)[O][Sn]([CH2]CCC)([CH2]CCC)[O]C(=O)c1cc(F)ccc1F	0.446 µM	1.67 µM	0.899 µM	2.21 µM	0.293 µM	1.24 µM	0.225 µM	0.946 µM	0.18 µM	0.496 µM	0.169 µM	0.497 µM	0.413 µM	1.2 µM	0.54 µM	1.78 µM	0.606 µM	1.85 µM	0.354 µM	1.25 µM
COc1ccc2c(c1O)C13CCN(C)C(C2)C1CCC1(C3)OCCO1 (stereo not given)		> 100 µM		> 100 µM		> 100 µM		> 100 µM		> 100 µM		> 100 µM		> 100 µM		> 100 µM		> 100 µM		> 100 µM
C/C=C/C/C=C/CCC(=O)[C@H]1O[C@H]1C(N)=O	11.6 µM	25 µM		31.8 µM	8.15 µM	22 µM		25.3 µM	15.9 µM	32.5 µM		28.3 µM	15.3 µM	31.5 µM	9.21 µM	22.9 µM		34.8 µM	15.1 µM	40.6 µM
Fc1ccc(-c2nn3c(-c4ccc(F)c(Cl)c4)nnc3s2)cc1	> 50 µM	> 50 µM	22.9 µM	> 50 µM	21.6 µM	> 50 µM	33.2 µM	> 50 µM	> 50 µM	> 50 µM	> 50 µM	> 50 µM	> 50 µM	> 50 µM	28.6 µM	> 50 µM	18.2 µM	> 50 µM	> 50 µM	> 50 µM
Cn1cc(C2=C(c3cn(CCO)c4ccccc34)C(=O)NC2=O)c2ccccc21	0.746 µM	> 25 µM	1.5 µM	> 14.9 µM	1.49 µM	> 25 µM	3.14 µM	11.9 µM	1.65 µM	8.37 µM	3.76 µM	20.2 µM	1.25 µM	5.89 µM	3.2 µM	14.6 µM	1.18 µM	7.58 µM	4.76 µM	> 19.6 µM
Nc1ccccc1-c1ccc([N+](=O)[O-])cc1	5.01 µM	> 100 µM	54.4 µM	> 100 µM	3.4 µM	> 100 µM	4.54 µM	37.1 µM	> 100 µM	> 100 µM	83.5 µM	> 100 µM	10.7 µM	27.2 µM	5.07 µM	> 100 µM	2.18 µM	64.8 µM	33.6 µM	> 100 µM
